# Counter-ions that a name gives are not always drawn. Like-named read-outs stand apart in the source and are kept apart here.
# Assays:
# [1] = cited from earlier work
# [2] = From the text: After solubilizing the sugar and the compound in ethanol or aqueous ethanol, the ethanol is evaporated for example under a high rotary vacuum. The powder resulting from the evaporation step is then resolubilized (dissolved) in water. Another solvent can be methanol at 80% methanol, 95% (ACS grade) or greater (to 100% methanol) as well as combinations of methanol and ethanol or methanol and water. After solubilizing the sugar and the compound in ethanol or aqueous ethanol, the ethanol is evaporated for example under a high rotary vacuum. The powder resulting from the evaporation step is then resolubilized (dissolved) in water.
# Generally, ingredients are deposited into a sealed container with ethanol and vortex-mixed to form a solution. The solution is subjected to centrifugation. The ethanol is evaporated off and the dried mixture was dissolved in water. This mixture is centrifuged again and the supernatant is filtered through a membrane. […] In one embodiment, the admixing process involves dissolving the PSD and sugar in the ethanol while stirring and adjusting the pH as necessary to obtain complete dissolution and a clear reaction mixture. The reaction mixture can then be dried to remove the ethanol. No further water washing or filtering is needed.
# In this example, an oven-dried single-neck RB flask equipped with a magnetic stir bar was used. […] The reaction mixture was vigorously stirred at room temperature for 30 min at 20° C. […] The white solid was dried using vacuum drying performed at room temperature and a high vacuum pump for about one hour to remove the ethanol (EtOH) completely using an Edvards Model #RV8 […], a Heidolph type Basis Hei-VAP Value, No. 560-00000-0101. The high vacuum pump was connected to a cooling trap and the trap was connected to the RB flask. Vacuum strength was about 1 mm Hg.
# The white foamy solid was dried over a high vacuum at room temperature for an additional hour to remove the water completely, by ascertaining changes in weight loss. Drying continued until further weight loss was not observed.
# Step 1: In an oven-dried single neck RB flask equipped with magnetic stir and septa (flask cap), 5 mg sildenafil (0.01054 mmol) and 16.95 mg stevioside (1:2 molar ratio) were weighed into the RB flask and dissolved in 85% ethanol (˜2.0 mL, denatured 85% ethanol) at ambient temperature. The reaction mixture was vigorously stirred at room temperature for 30 min. […] The white solid was dried over a high vacuum for an hour to remove the ethanol completely (no further reduction in weight was observed).
# Step 2: The obtained white solid was then dissolved in 2.0 mL water at room temperature in an RB flask with a magnetic stir bar. The reaction mixture was stirred at ambient temperature for 30 min. […] The white foamy solid was dried over a high vacuum at room temperature for an additional hour to remove the water completely. The weight of the flask was checked while drying until no further weight loss was observed.
# [3] = Non-caloric sugar solubility in water and 95% ethanol
# Experimental: In this experiment, the following sugars were compared for solubility: rubusoside, dulcoside A, rebaudioside B, dulcoside B, and rebaudioside D. Approximately 5.0 mg of each sugar was attempted to be dissolved in 0.6 mL water and vortexed for 2 minutes at room temperature.
# In another experiment, 50 mg stevia was dissolved in either 2.0 mL water or 2.0 mL 95% ethanol.
# [4] = cited from earlier work; remark: listed apart in the source
# [5] = approximately 5.0 mg in 0.6 mL water, vortexed 2 minutes, room temperature
compound,measurement,setting,value
Nc1nc2c(ncn2COCCO)c(=O)[nH]1 [Acyclovir],water solubility,[1]; drug alone,less than 1 mg/mL
"CCCCC[C@H](O)/C=C/[C@H]1[C@H](O)CC(=O)[C@@H]1CCCCCCC(=O)O [Alprostadil, (1R,2R,3R)-3-Hydroxy-2-[(E)-(3S)-3-hydroxy-1-octenyl]-5-oxocyclopentane heptanoic acid]",solubility of the complex in water by NMR,[2],100%
same,solubility in DMSO,[1],soluble
same,solubility in distilled water,[1]; distilled water,8000 μg per 100 mL
same,solubility in water,[1]; drug alone,insoluble
same,water solubility,[1]; drug alone,less than 1 mg/mL
same,"solubility in ethanol, ether and ethyl acetate",[1]; printed over two lines: nearly / insoluble,"insoluble in ethanol, ether"
"COc1ccc(CN=c2[nH]c(N3CCC[C@H]3CO)ncc2C(=O)NCc2ncccn2)cc1Cl [Avanafil, 4-[(3-chloro-4-methoxyphenyl)methylamino]-2-[(2S)-2-(hydroxymethyl)pyrrolidin-1-yl]-N-(pyrimidin-2-ylmethyl)pyrimidine-5-carboxamide]",solubility in water by NMR,[2],100%
same,solubility in DMSO,[1]; at 25° C.,Soluble in DMSO (97 mg/ml
same,solubility in DMSO,[1],soluble
O=C(CO)[C@@H](O)[C@H](O)[C@H](O)CO [D-fructose],solubility of the sugar in 95% ethanol (observation),"[3]; Example 22, 200 mg, 20° C.",not soluble
same,solubility of the sugar in water (observation),"[3]; Example 22, 200 mg, 20° C.",soluble
same,Sugar Solubility in 95% EtOH,[4],Insoluble
CC(=O)O[C@H]1C(=O)[C@@]2(C)[C@H]([C@H](OC(=O)c3ccccc3)[C@]3(O)C[C@H](OC(=O)[C@H](O)[C@@H](NC(=O)c4ccccc4)c4ccccc4)C(C)=C1C3(C)C)[C@]1(OC(C)=O)CO[C@@H]1C[C@@H]2O [Paclitaxel],"Solubility of Paclitaxel In Ethanol, With Rubusoside",[2],Soluble
same,"Solubility of Paclitaxel In Water after first being dissolved in EtOH, With Rubusoside",[2],Insoluble
same,"Solubility of Paclitaxel In Water, With Rubusoside",[2],Insoluble
"CC1(C)S[C@@H]2[C@H](NC(=O)COc3ccccc3)C(=O)N2[C@H]1C(=O)O [Penicillin V HCl, phenoxymethylpenicillinic acid]","Solubility In 95% Ethanol, With Rubusoside (table of Example 25)",[2],Soluble
same,"Solubility In Water after first being dissolved in EtOH, With Rubusoside (table of Example 25)",[2],Soluble
same,"Solubility In Water, With Rubusoside (table of Example 25)",[2],Soluble
same,"Solubility of Penicillin V HCl In Ethanol, With Rubusoside",[2],Soluble
same,"Solubility of Penicillin V HCl In Water after first being dissolved in EtOH, With Rubusoside",[2],Soluble
same,"Solubility of Penicillin V HCl In Water, With Rubusoside",[2],Soluble
same,"Solubility of Penicillin V HCl In Ethanol, Without Rubusoside",[1]; Example 24,Soluble
same,"Solubility of Penicillin V HCl In Water, Without Rubusoside",[1]; Example 24,0.636 mg/mL or at
same,"Solubility of Penicillin V HCl In Water, Without Rubusoside","[1]; Example 24, pH 1.8 acidified with HCl",HCl at 24 mg/100 mL
same,"Solubility In Water, Without Rubusoside (table of Example 25)","[1]; Example 25 (acyclovir and rubusoside), at 55° C.",1 mg/mL at 55 °C
same,"Solubility In Water, Without Rubusoside (table of Example 25)","[1]; Example 25 (acyclovir and rubusoside), at pH 1.8",24 mg/100 mL at
same,"Solubility In 95% Ethanol, Without Rubusoside (table of Example 25)",[1]; Example 25 (acyclovir and rubusoside),Soluble
C=C1C[C@@]23CC[C@H]4[C@@](C)(CCC[C@@]4(C)C(=O)O[C@@H]4O[C@H](CO)[C@@H](O)[C@H](O)[C@H]4O)[C@@H]2CC[C@]1(O[C@@H]1O[C@H](CO)[C@@H](O)[C@H](O)[C@H]1O)C3 [Rubusoside],solubility of the sugar in water (observation),[3]; [5],No undissolved
same,Sugar Solubility in 95% EtOH,[4],10000 µg/mL
same,Sugar Solubility in Water,[4],Soluble
C=C1C[C@@]23CC[C@H]4[C@@](C)(CCC[C@@]4(C)C(=O)O[C@@H]4O[C@H](CO)[C@@H](O)[C@H](O)[C@H]4O)[C@@H]2CC[C@]1(O[C@@H]1O[C@H](CO)[C@@H](O)[C@H](O)[C@H]1O[C@@H]1O[C@H](CO)[C@@H](O)[C@H](O)[C@H]1O)C3 [Stevioside],Sugar Solubility in 95% EtOH,[4],30000 µg/mL
same,Sugar Solubility in Water,[4],4 g/L
"CN1CC(=O)N2[C@H](c3ccc4c(c3)OCO4)c3[nH]c4ccccc4c3C[C@@H]2C1=O [Tadalafil, (2R,8R)-2-(1,3-benzodioxol-5-yl)-6-methyl-3,6,17-triazatetracyclo[8.7.0.0^3, 8.0^11, 16]heptadeca-1(10),11,13,15-tetraene-4,7-dione]",improvement in water solubility,[2],~2.3%
same,appearance of the dried gel in water,"[2]; Example 31, Tadalafil:Tween 80 1:5 molar, after 3 minutes",white and turbid solution
same,appearance of the dried mixture in 3 mL water,"[2]; Example 31, tadalafil:P188:stevioside 1:10:5 molar",white turbid solution
same,appearance of the dried mixture in water,"[2]; Example 31, tadalafil:P-188 1:10",turbid solution
same,appearance of the dried mixture in 2.0 mL water,"[2]; Example 31, tadalafil:Tween 20 1:5 molar",white turbid solution with solids still visible
same,appearance of the dried mixture in 3.0 mL water,"[2]; Example 31, tadalafil:glycerol:stevioside 1:20:5",white turbid solution
same,low-intensity drug peaks by NMR,"[2]; Example 31, tadalafil:glycerol:stevioside 1:20:5, 10 mg citric acid monohydrate, pH about 3.0",2-3%
same,appearance of the dried mixture in 3.0 mL water,"[2]; Example 31, tadalafil:glycerol:stevioside 1:30:5, citric acid, pH about 3.0",white turbid
same,appearance of the dried mixture in water,"[2]; Example 31, tadalafil:stevioside 1:3 molar, citric acid in step 1",white turbid solution
same,appearance of the dried powder in 2 mL water,"[2]; Example 31, tadalafil:stevioside 1:10 molar, buffer pH 9.4 added in water",white turbid solution
same,appearance of the dried mixture in water,"[2]; Example 31, tadalafil:stevioside 1:10 molar, carbonate buffer pH 9.4 in step 1",white and turbid
same,solubility of the complex in water,[2]; pH 2.5,not 100% soluble
same,solubility in water,[1]; at 25° C.,220 mg/L at 25 °C in water
same,solubility in chloroform,[1],soluble
CCCOc1ccc(S(=O)(=O)NCCC2CCCN2C)cc1-c1nc2c(CCC)nn(C)c2c(=O)[nH]1 (stereo not shown) [Udenafil],solubility in DMSO,[1],soluble
same,water solubility,[1]; drug alone,about 0.0798 mg/mL
CCCc1nc(C)c2c(=O)[nH]c(-c3cc(S(=O)(=O)N4CCN(CC)CC4)ccc3OCC)nn12 [Vardenafil HCl],solubility of the complex in water by NMR,[2],100%
same,solubility in DMSO,"[1]; at 28° C., solids remain present at 22° C.",soluble
same,solubility in chloroform,[1],insoluble
"CCCc1nc(C)c2c(=O)[nH]c(-c3cc(S(=O)(=O)N4CCN(CC)CC4)ccc3OCC)nn12 [Vardenafil, 2-[2-ethoxy-5-(4-ethylpiperazin-1-yl)sulfonylphenyl]-5-methyl-7-propyl-3H-imidazo[5,1-f][1,2,4]triazin-4-one]",solubility in water,"[1]; at 25° C., Estimated",3.5 mg/L at 25° C./
C=C1C[C@@]23CC[C@H]4[C@@](C)(CCC[C@@]4(C)C(=O)O[C@@H]4O[C@H](CO)[C@@H](O)[C@H](O)[C@H]4O)[C@@H]2CC[C@]1(O[C@@H]1O[C@H](CO)[C@@H](O)[C@H](O[C@@H]2O[C@H](CO)[C@@H](O)[C@H](O)[C@H]2O)[C@H]1O[C@@H]1O[C@@H](C)[C@H](O)[C@@H](O)[C@H]1O)C3 [dulcoside B],solubility of the sugar in water (observation),[3]; [5],partially soluble
same,Sugar Solubility in 95% EtOH,[4],Slightly soluble
same,Sugar Solubility in Water,[4],Partly soluble
C[C@]12C=CC(=O)C=C1CC[C@@H]1[C@@H]2C(=O)C[C@@]2(C)[C@H]1CC[C@]2(O)C(=O)CO [prednisone],appearance of the dried powder re-dissolved in 2 mL deionized water,"[2]; Example 23, rubusoside 50 mg : prednisone 5 mg",white turbid mixture
OC[C@H]1O[C@@](CO)(O[C@H]2O[C@H](CO)[C@@H](O)[C@H](O)[C@H]2O)[C@@H](O)[C@@H]1O [sucrose],Sugar Solubility in 95% EtOH,[4],Insoluble
same,Sugar Solubility in Water,[4],204 g/100 g water
C[C@]12CC[C@H]3[C@@H](CCC4=CC(=O)CC[C@@]43C)[C@@H]1CC[C@@H]2OC(=O)CCC1CCCC1 [testosterone cypionate],appearance of the dried mixture dissolved in water,[2]; rubusoside 23.4 mg : testosterone cypionate 5 mg (3:1 sugar-to-drug),white turbid solution
same,appearance of the dried powder in 2 mL water,[2]; testosterone cypionate:stevioside 1:10 molar,white-turbid solution

# — patent US12115222B2, “Compositions and methods for improving the solubility of erectile dysfunction therapeutics” (Villya LLC, priority 2023, dated 2024)
